Test results taken from ChEMBL document CHEMBL2146447, “Synthesis and antimicrobial activity of amido linked pyrrolyl and pyrazolyl-oxazoles, thiazoles and imidazoles” (2011).
Activity calls are given as the source filed them. The calls are words filed in the database; no cut-off is given here.

Assays:
Assay type in all cases: functional
[1] = test system: Aspergillus niger; assay: Antifungal activity against Aspergillus niger at 50 ug after 48 hrs by agar well diffusion method; settings: for zone of inhibition at 50 µg/disc: read-out: DIZ
[2] = test system: Staphylococcus aureus; assay: Antibacterial activity against Staphylococcus aureus assessed at 50 ug after 24 hrs by agar well diffusion method; settings: for zone of inhibition at 50 µg/disc: read-out: DIZ
[3] = test system: Bacillus subtilis; assay: Antibacterial activity against Bacillus subtilis at 50 ug after 24 hrs by agar well diffusion method; settings: for zone of inhibition at 50 µg/disc: read-out: DIZ
[4] = test system: Klebsiella pneumoniae; assay: Antibacterial activity against Klebsiella pneumoniae at 100 ug after 24 hrs by agar well diffusion method; settings: for zone of inhibition at 100 µg/disc: read-out: DIZ
[5] = test system: Bacillus subtilis; assay: Antibacterial activity against Bacillus subtilis at 100 ug after 24 hrs by agar well diffusion method; settings: for zone of inhibition at 100 µg/disc: read-out: DIZ
[6] = test system: Pseudomonas aeruginosa; assay: Antibacterial activity against Pseudomonas aeruginosa at 50 ug after 24 hrs by agar well diffusion method; settings: for zone of inhibition at 50 µg/disc: read-out: DIZ
[7] = test system: Pseudomonas aeruginosa; assay: Antibacterial activity against Pseudomonas aeruginosa at 100 ug after 24 hrs by agar well diffusion method; settings: for zone of inhibition at 100 µg/disc: read-out: DIZ
[8] = test system: Staphylococcus aureus; assay: Antibacterial activity against Staphylococcus aureus at 100 ug after 24 hrs by agar well diffusion method; settings: for zone of inhibition at 100 µg/disc: read-out: DIZ
[9] = test system: Penicillium chrysogenum; assay: Antifungal activity against Penicillium chrysogenum at 50 ug after 48 hrs by agar well diffusion method; settings: for zone of inhibition at 50 µg/disc: read-out: DIZ
[10] = test system: Klebsiella pneumoniae; assay: Antibacterial activity against Klebsiella pneumoniae at 50 ug after 24 hrs by agar well diffusion method; settings: for zone of inhibition at 50 µg/disc: read-out: DIZ
[11] = test system: Aspergillus niger; assay: Antifungal activity against Aspergillus niger at 100 ug after 48 hrs by agar well diffusion method; settings: for zone of inhibition at 100 µg/disc: read-out: DIZ
[12] = test system: Penicillium chrysogenum; assay: Antifungal activity against Penicillium chrysogenum at 100 ug after 48 hrs by agar well diffusion method; settings: for zone of inhibition at 100 µg/disc: read-out: DIZ

Structure (SMILES)	zone of inhibition at 50 µg/disc [1] [mm]	zone of inhibition at 50 µg/disc [2] [mm]	zone of inhibition at 50 µg/disc [3] [mm]	zone of inhibition at 100 µg/disc [4] [mm]	zone of inhibition at 100 µg/disc [5] [mm]	zone of inhibition at 50 µg/disc [6] [mm]	zone of inhibition at 100 µg/disc [7] [mm]	zone of inhibition at 100 µg/disc [8] [mm]	zone of inhibition at 50 µg/disc [9] [mm]	zone of inhibition at 50 µg/disc [10] [mm]	zone of inhibition at 100 µg/disc [11] [mm]	zone of inhibition at 100 µg/disc [12] [mm]	also measured
O=C(Nc1nc(-c2ccc(Cl)cc2)co1)c1c[nH]cc1-c1ccccc1	24	18	17	25	21	18	20	20	25	23	26	28	
O=C(/C=C/c1ccccc1)Nc1nc(-c2ccccc2)cs1	21	21	24	28	26	17	18	23	23	26	24	26	
Cc1ccc(-c2c[nH]c(NC(=O)/C=C/c3ccccc3)n2)cc1	18	18	21	25	23	14	16	20	20	23	21	23	
Cc1ccc(-c2c[nH]c(NC(=O)c3c[nH]cc3-c3ccccc3)n2)cc1	14	14	17	21	19	13	14	16	16	19	17	19	
O=C(/C=C/c1ccccc1)Nc1nc(-c2ccccc2)c[nH]1	19	19	22	26	24	16	17	21	21	24	22	24	
O=C(Nc1nc(-c2ccc(Cl)cc2)co1)c1n[nH]cc1-c1ccccc1	24	20	21	24	22	19	21	23	26	23	27	29	
Cc1ccc(-c2coc(NC(=O)/C=C/c3ccccc3)n2)cc1													diameter of the inhibition zone (DIZ) [1]: inactive; diameter of the inhibition zone (DIZ) [2]: inactive; diameter of the inhibition zone (DIZ) [3]: inactive; diameter of the inhibition zone (DIZ) [4]: inactive; diameter of the inhibition zone (DIZ) [5]: inactive; diameter of the inhibition zone (DIZ) [6]: inactive; diameter of the inhibition zone (DIZ) [7]: inactive; diameter of the inhibition zone (DIZ) [8]: inactive; diameter of the inhibition zone (DIZ) [9]: inactive; diameter of the inhibition zone (DIZ) [10]: inactive; diameter of the inhibition zone (DIZ) [11]: inactive; diameter of the inhibition zone (DIZ) [12]: inactive
O=C(Nc1nc(-c2ccccc2)c[nH]1)c1n[nH]cc1-c1ccccc1	8	8	10	14	13	9	11	10	9	12	10	12	
O=C(/C=C/c1ccccc1)Nc1nc(-c2ccc(Cl)cc2)co1	25	22	20	27	24	21	22	25	27	24	28	30	
Cc1ccc(-c2csc(NC(=O)/C=C/c3ccccc3)n2)cc1	19	20	23	27	25	15	17	22	22	25	23	25	
O=C(Nc1nc(-c2ccc(Cl)cc2)cs1)c1c[nH]cc1-c1ccccc1	29	26	27	30	29	23	25	27	30	29	31	33	
Cc1ccc(-c2coc(NC(=O)C3=NNCC3c3ccccc3)n2)cc1 (stereo unspecified)													diameter of the inhibition zone (DIZ) [1]: inactive; diameter of the inhibition zone (DIZ) [2]: inactive; diameter of the inhibition zone (DIZ) [3]: inactive; diameter of the inhibition zone (DIZ) [4]: inactive; diameter of the inhibition zone (DIZ) [5]: inactive; diameter of the inhibition zone (DIZ) [6]: inactive; diameter of the inhibition zone (DIZ) [7]: inactive; diameter of the inhibition zone (DIZ) [8]: inactive; diameter of the inhibition zone (DIZ) [9]: inactive; diameter of the inhibition zone (DIZ) [10]: inactive; diameter of the inhibition zone (DIZ) [11]: inactive; diameter of the inhibition zone (DIZ) [12]: inactive
O=C(Nc1nc(-c2ccccc2)cs1)c1n[nH]cc1-c1ccccc1	9	9	12	16	14	9	11	12	11	14	12	14	
O=C(Nc1nc(-c2ccccc2)cs1)C1=NNCC1c1ccccc1 (stereo unspecified)		13	14		16			15					diameter of the inhibition zone (DIZ) [1]: inactive; diameter of the inhibition zone (DIZ) [4]: inactive; diameter of the inhibition zone (DIZ) [6]: inactive; diameter of the inhibition zone (DIZ) [7]: inactive; diameter of the inhibition zone (DIZ) [9]: inactive; diameter of the inhibition zone (DIZ) [10]: inactive; diameter of the inhibition zone (DIZ) [11]: inactive; diameter of the inhibition zone (DIZ) [12]: inactive
Cc1ccc(-c2c[nH]c(NC(=O)c3n[nH]cc3-c3ccccc3)n2)cc1	8	8	9	13	12	9	10	9	8	11	9	11	
O=C(/C=C/c1ccccc1)Nc1nc(-c2ccc(Cl)cc2)cs1	31	29	27	35	29	25	27	32	32	33	33	35	
O=C(Nc1nc(-c2ccc(Cl)cc2)cs1)C1=NNCC1c1ccccc1 (stereo unspecified)	28	24	25	28	26	22	23	27	28	25	29	31	
O=C(Nc1nc(-c2ccccc2)co1)c1c[nH]cc1-c1ccccc1		12	13		15			14					diameter of the inhibition zone (DIZ) [1]: inactive; diameter of the inhibition zone (DIZ) [4]: inactive; diameter of the inhibition zone (DIZ) [6]: inactive; diameter of the inhibition zone (DIZ) [7]: inactive; diameter of the inhibition zone (DIZ) [9]: inactive; diameter of the inhibition zone (DIZ) [10]: inactive; diameter of the inhibition zone (DIZ) [11]: inactive; diameter of the inhibition zone (DIZ) [12]: inactive
